By EC50 is commonly meant the concentration giving half of the maximal effect. A word on the IC50: it is the midpoint of a concentration-inhibition curve.

Assay [1] relates to TGF-b induced Endothelin-1 production. Nature of the assay: ET-1 assay: inhibitory effect on TGF-b induced endothelin-1 production. In kind it is cell-based. To be noted: Homo sapiens, Fibroblast; fibroblasts, stimulant (TGFb, serum, LPA etc), ET-1 in media by ELISA, 4-parameter fit. A digest of the protocol: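 Fibroblasts (primary human lung/dermal, HFL-1, 3T3) serum-starved 0-48 h, preincubated ~30 min with compound, then stimulated (TGFb, serum or LPA) for 16-48 h. Secreted ET-1 measured by ELISA; EC50 from 4-parameter logistic fit, with CC50 from ATPlite in the same wells.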
(In general: ELISA stands for enzyme-linked immunosorbent assay.)

Assay [2] relates to Fibroblasts (primary human lung and dermal, HFL-1, 3T3 etc). In words: Cell proliferation assay (BrdU incorporation). In kind it is cell-based. To be noted: HFL1, stimulant (LPA, TGFb, serum etc), 50% inhibition of the increase of BrdU incorporation. A digest of the protocol:
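Serum-starved (24-48 h) fibroblasts pretreated with compound 0-30 min, then stimulated (LPA, TGFb, serum etc) for 16-24 h before BrdU, labelled a further 8 h. BrdU incorporation read by ELISA at 450 nm; IC50 taken as 50% inhibition of the stimulant-induced increase over unstimulated wells.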

The structures appear in SMILES notation.

In the case of `COCCOCCOCCOc1ccc(-n2cc(C(C)=O)ccc2=O)cc1` [Compound 21], the EC50 in assay [1] is > 200 µM. Further, in assay [2], the IC50 was > 200 µM.
In the case of `CCOC(=O)n1cc(-c2ccc(=O)n(-c3ccccc3)c2)cn1` [Compound 73], the EC50 in assay [1] was < 50 µM. Besides, in assay [2], the IC50 is > 200 µM.
For `Cc1cc(=O)n(-c2ccc(OC(F)(F)F)cc2)cc1-c1ccc(Cl)c(F)c1` [Compound 198] the same measures were 50 to 200 µM and < 50 µM.
Consider `O=C1COc2c(-c3ccc(F)cc3)cn(-c3ccc(OC(F)(F)F)cc3)c(=O)c2N1` [Compound 52], for which the 50% effective concentration (EC50) in assay [1] is > 200 µM. Besides, in assay [2], the IC50 is > 200 µM.
Take `Cc1cc(=O)n(-c2cccc3c2OCCO3)cc1-c1ccc(F)cc1` [Compound 185]: the EC50 in assay [1] lay within 50 to 200 µM. For the same compound, the IC50 in assay [2] is < 50 µM.
In the same order, the values of `Cn1cc(-c2cn(-c3ccc(OC(F)(F)F)cc3)c(=O)c3c2ccn3C)cn1` [Compound 394] are < 50 µM and < 50 µM.
For `O=c1cc(NCc2ccccn2)ccn1-c1ccc(OC(F)(F)F)cc1` [Compound 547] the same measures were < 50 µM and < 50 µM.
`CCn1nnc2c(-c3ccc(F)cc3)cn(-c3ccc(OC(F)(F)F)cc3)c(=O)c21` [Compound 683]: the EC50 in assay [1] is < 50 µM. In addition, in assay [2], the IC50 is < 50 µM.
With `Cc1cc(=O)n(-c2ccc(Cl)cc2)cc1-c1ccnnc1` [Compound 432], the EC50 in assay [1] was > 200 µM. This compound displayed an IC50 in assay [2] of 50 to 200 µM.
In the case of `Cn1cc(-c2cn(-c3ccc(OC(F)(F)F)cc3)c(=O)cc2NCc2ccccn2)cn1` [Compound 161], the concentration giving a half-maximal response (EC50) in assay [1] is < 50 µM. For the same compound, the IC50 in assay [2] is < 50 µM.
Consider `Cc1cc(=O)n(-c2ccc(OC(F)(F)F)cc2)cc1-c1ccc2c(c1)OCC(=O)N2` [Compound 424], for which the EC50 in assay [1] lay in the range of 50 to 200 µM. Also, the IC50 in assay [2] was < 50 µM.
In the same order, the values of `Cn1cc(-c2cn(-c3ccc(OC(F)(F)F)cc3)c(=O)cc2Oc2ccccc2Cl)cn1` [Compound 414] are < 50 µM and < 50 µM.
For `Cc1cn(C)c2c(=O)n(-c3ccc(OC(F)(F)F)cc3)cc(-c3ccc(F)cc3)c12` [Compound 49] the same measures were < 50 µM and < 50 µM.
In the same order, the values of `Cc1cc(=O)n(-c2ccc(OC(F)(F)F)cc2)cc1-c1ccc2c(c1)NC(=O)CO2` [Compound 209] are < 50 µM and < 50 µM.
Take `Cc1cc(=O)n(-c2ccc(NC(N)=O)cc2)cc1-c1ccc(F)cc1` [Compound 418]: the EC50 in assay [1] lay within 50 to 200 µM. Further, the IC50 in assay [2] was in the range of 50 to 200 µM.
As for `Cn1cc(-c2cn(-c3ccc(OC(F)(F)F)cc3)c(=O)cc2C#N)cn1` [Compound 402], in assay [1], the EC50 was < 50 µM. For the same compound, the IC50 in assay [2] was > 200 µM.
In the case of `CCn1nnc2c(-c3cnn(C)c3)cn(-c3ccc(OC(F)(F)F)cc3)c(=O)c21` [Compound 625], the EC50 in assay [1] was < 50 µM. Moreover, the IC50 in assay [2] was < 50 µM.
As to `CCOc1ccc(-n2cc(-c3ccnnc3)c(C)cc2=O)c(C)c1` [Compound 629], in assay [1], the EC50 was < 50 µM. For the same compound, the IC50 in assay [2] is > 200 µM.
For `Cn1ccc2c(-c3cn[nH]c3)cn(-c3ccc(C#N)cc3)c(=O)c21` [Compound 600] the same measures were < 50 µM and > 200 µM.

(Values after patent publication US10233195B2, “Anti-fibrotic pyridinones” (InterMune, Inc., priority 2014, dated 2019).)
